Drawing on patent US10730856B2, “Benzimidazole derivatives as EP4 ligands” (BAYER PHARMA AKTIENGESELLSCHAFT, priority 2013, dated 2020), this text covers IC50 for eleven compounds.

Each structure is given as a SMILES string.

In the first assay the target is human EP4 receptor (Homo sapiens (Human), UniProt P35408). Kind of assay: hEP4 antagonism test (cAMP HTRF, PGE2-stimulated hEP4-expressing cells). It is filed as cell-based. To be noted: PGE2-induced stimulation of cAMP production, cells expressing the EP4 receptor; read-out: inhibition of PGE2-induced cAMP production in cells expressing the EP4 receptor, IC50. An excerpt: The antagonistic action can be determined by an antagonism assay (see Example 3.2.1 of the biological examples).
Sequence of human EP4 receptor (P35408 whole entry): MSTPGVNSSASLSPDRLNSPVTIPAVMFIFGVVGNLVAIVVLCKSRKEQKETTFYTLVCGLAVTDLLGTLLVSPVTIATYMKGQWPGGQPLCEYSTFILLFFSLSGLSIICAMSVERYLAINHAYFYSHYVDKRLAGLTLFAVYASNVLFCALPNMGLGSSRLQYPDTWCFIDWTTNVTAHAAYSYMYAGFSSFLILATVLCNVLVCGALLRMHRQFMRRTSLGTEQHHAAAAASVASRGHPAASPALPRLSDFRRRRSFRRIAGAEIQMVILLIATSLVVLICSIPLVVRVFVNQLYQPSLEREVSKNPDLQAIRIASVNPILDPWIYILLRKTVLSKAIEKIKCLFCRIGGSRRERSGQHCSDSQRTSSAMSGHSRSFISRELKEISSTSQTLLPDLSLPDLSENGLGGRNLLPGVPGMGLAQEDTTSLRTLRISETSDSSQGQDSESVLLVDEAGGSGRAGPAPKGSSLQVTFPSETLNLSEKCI
3. Detection of the Antagonism of the Human Prostaglandin E2 (Subtype ER4) Receptor Signal
Detection of the Antagonization of the hEP4 Signal
Binding of the agonist prostaglandin E2 (PGE2) to the EP4 subtype of the human hPGE2-R (hEP4-R) induces activation of membrane-bound adenylate cyclases and thus the formation of cAMP. In the presence of the phosphodiesterase inhibitor IBMX, this cAMP accumulates intracellularly and is, after cell lysis, employed in a competitive detection method. In this method, it competes with a fluorescently labelled cAMP (cAMP-d2) for binding to an anti-cAMP antibody labelled with an Eu cryptate. In the absence of cellular cAMP, a complex between the Eu-cryptate-labelled anti-cAMP antibody and the cAMP-d2 molecule is formed which, after excitation at 337 nm, allows a FRET-based (FRET=fluorescence resonance energy transfer) enery transfer to the cAMP-d2 tracer and results in a long-lasting fluorescence signal (emission at 665 and 620 nm). This signal is time-resolved, i.e. measured in a suitable measuring device once the background fluorescence has subsided (time resolved; TR-FRET). Additionally, well-ratio determination (emission 665 nm/emission 620 nm*10 000) allows variations in the individual measurements in the added amounts of detection reagents to be normalized.
Administration of prostglandin E2 and increase of intracellular cAMP reduces the FRET signal which increases again if the substance is antagonistically active.
3.2.1 Test for Antagonism (Figures Per Well of a 384-Well Plate):
4 μl of a suspension of hEP4-expressing cells (2500 cells/well) already comprising the cAMP-D2 tracer are added to the substance solutions (50 nl; 100% DMSO) initially charged in a test plate. After 20 minutes of pre-incubation at room temperature, 2 μl of a 3×PGE2 solution are added and the mixture is incubated in the presence of an EC80 concentration of the agonist (0.4 nM) for a further 60 min at room temperature (volume: ˜6 μl), and the whole reaction is then stopped by addition of 2 μl of lysis buffer (volume: ˜8 μl). After a further 20 min at room temperature, the cell lysate is measured in accordance with the instructions of the manufacturer in a measuring instrument suitable for TR-FRET (compare cAMP HTRF assay kit: Cisbio International 62AM6PEJ high range)
The term IC50 denotes the point on the concentration scale where inhibition reaches its midpoint. With `CCn1c2ccc(-c3nc4cc(C(=O)O)ccc4n3CCOC)cc2c2cc(C)cc(F)c21` [Example 10, 2-(9-Ethyl-8-fluoro-6-methyl-9H-carbazol-3-yl)-1-(2-methoxyethyl)-1H-benzimidazole-5-carboxylic Acid], the 50% inhibitory concentration (IC50) was about 1.5 nM.

The same assay, now with this note: hEP4-expressing cells, PGE2 at EC80 (0.4 nM), cAMP TR-FRET; read-out: hEP4 antagonization IC50.
Regarding `CCn1c2ccc(-c3nc4c(F)c(C(=O)O)ccc4n3CCOC)cc2c2cc(C)cc(F)c21` [Example 8, 2-(9-Ethyl-8-fluoro-6-methyl-9H-carbazol-3-yl)-4-fluoro-1-(2-methoxyethyl)-1H-benzimidazole-5-carboxylic Acid], the IC50 turned out to be 1.9 nM.

As for `CCn1c2ccc(-c3nc4c(C)c(C(=O)O)ccc4n3CCOC)cc2c2cc(F)cc(C)c21` [Example 6, 2-(9-Ethyl-6-fluoro-8-methyl-9H-carbazol-3-yl)-1-(2-methoxyethyl)-4-methyl-1H-benzimidazole-5-carboxylic Acid], the half-maximal inhibitory concentration (IC50) came to 2 nM.

Turning to `CCn1c2ccc(Br)cc2c2cc(-c3nc4c(C)c(C(=O)OC)ccc4n3CCOC)ccc21` [Example 1, Methyl 2-(6-bromo-9-ethyl-9H-carbazol-3-yl)-1-(2-methoxyethyl)-4-methyl-1H-benzimidazole-5-carboxylate], the 50% inhibitory concentration (IC50) is 32 nM.

Consider `CCn1c2ccc(-c3nc4c(C)c(C(=O)O)ccc4n3CCOC)cc2c2cc(C)cc(F)c21` [Example 4, 2-(9-Ethyl-8-fluoro-6-methyl-9H-carbazol-3-yl)-1-(2-methoxyethyl)-4-methyl-1H-benzimidazole-5-carboxylic Acid], for which the half-maximal inhibitory concentration (IC50) was determined as 2.4 nM.

On to `CCn1c2ccc(-c3nc4c(F)c(C(=O)O)ccc4n3CCOC)cc2c2cc(F)cc(C)c21` [Example 7, 2-(9-Ethyl-6-fluoro-8-methyl-9H-carbazol-3-yl)-4-fluoro-1-(2-methoxyethyl)-1H-benzimidazole-5-carboxylic Acid], for which the 50% inhibitory concentration (IC50) was 2.4 nM.

`CCOC(=O)c1ccc2c(c1)nc(-c1ccc3c(c1)c1cc(C)cc(F)c1n3CC)n2CCOC` [Example 9, Ethyl 2-(9-ethyl-8-fluoro-6-methyl-9H-carbazol-3-yl)-1-(2-methoxyethyl)-1H-benzimidazole-5-carboxylate]: the IC50 came to 62 nM.

`CCn1c2ccc(Br)cc2c2cc(-c3nc4c(C)c(C(=O)O)ccc4n3CCOC)ccc21` [Example 2, 2-(6-Bromo-9-ethyl-9H-carbazol-3-yl)-1-(2-methoxyethyl)-4-methyl-1H-benzimidazole-5-carboxylic Acid]: the IC50 was found to be 11 nM.

For the compound `CCn1c2ccc(-c3nc4c(C)c(C(=O)OC)ccc4n3CCOC)cc2c2cc(C)cc(Cl)c21` [Example 11, Methyl 2-(8-chloro-9-ethyl-6-methyl-9H-carbazol-3-yl)-1-(2-methoxyethyl)-4-methyl-1H-benzimidazole-5-carboxylate], the 50% inhibitory concentration (IC50) came to 47 nM.

Take `CCn1c2ccc(-c3nc4c(C)c(C(=O)OC)ccc4n3CCOC)cc2c2cc(C)cc(F)c21` [Example 3, Methyl 2-(9-ethyl-8-fluoro-6-methyl-9H-carbazol-3-yl)-1-(2-methoxyethyl)-4-methyl-1H-benzimidazole-5-carboxylate]: the IC50 turned out to be 40 nM.

As to `CCn1c2ccc(-c3nc4cc(C(=O)O)ccc4n3CCOC)cc2c2cc(C)cc(F)c21` [Example 10, 2-(9-Ethyl-8-fluoro-6-methyl-9H-carbazol-3-yl)-1-(2-methoxyethyl)-1H-benzimidazole-5-carboxylic Acid], the IC50 amounted to 1.5 nM.

For `CCn1c2ccc(-c3nc4c(C)c(C(=O)O)ccc4n3CCOC)cc2c2cc(C)cc(Cl)c21` [Example 12, 2-(8-Chloro-9-ethyl-6-methyl-9H-carbazol-3-yl)-1-(2-methoxyethyl)-4-methyl-1H-benzimidazole-5-carboxylic Acid], the 50% inhibitory concentration (IC50) came to 2.8 nM.
